We go through 17 molecules from ChEMBL document CHEMBL1208787 (Bioorg Med Chem Lett, 2010).

Structures are written as SMILES.

Series [1] has as its system Rattus norvegicus. Nature of the series: Antiinflammatory activity in rat assessed as inhibition of carrageenan-induced paw edema administered orally at dose equivalent to 70 mg/kg ibuprofen after 4 hrs. As to conditions: route oral. It is filed as functional. A general note: Carrageenan injected into the paw causes an acute inflammation.
The test system of series [2] is Mus musculus. Put plainly: Analgesic activity in po dosed mouse assessed as decrease in tail flick tendency after 4 hrs by tail flick test. In kind it is functional. In general terms: Thermal pain tests record how soon the animal reacts.
In series [3] the test system is Rattus norvegicus. Put plainly: Gastrointestinal toxicity in rat assessed as ulcerogenic index administered orally at dose equivalent to 210 mg/kg ibuprofen. Further details: dose 210 mg/kg, route oral. As to conditions: in vivo, po. In kind it is organism-based.
Series [4] deals with Stomach (Rattus norvegicus). Put plainly: Gastrointestinal toxicity in rat gastric mucosa assessed as ulcerogenic activity-related malonaldehyde level per 100 mg of tissue administered orally at dose equivalent to 210 mg/kg ibuprofen (RVb = 3.26 nmol). As to conditions: in vivo, po.
For series [5], the system named is Rattus norvegicus. Put plainly: Hepatotoxicity in po dosed rat assessed as effect on serum SGOT level (reference value: 143.71 +/- 1.1 U/mL). It is filed as toxicity, organism-based. As to conditions: in vivo.
Series [6] concerns Rattus norvegicus. Nature of the series: Hepatotoxicity in po dosed rat assessed as effect on serum SGPT level (reference value: 32.46 +/- 0.76 U/mL). As to conditions: in vivo. It is filed as toxicity, organism-based.
In series [7] the test system is Rattus norvegicus. Nature of the series: Hepatotoxicity in po dosed rat assessed as effect on serum alkaline phosphatase level (reference value: 12.17 +/- 0.16 U/mL). As to conditions: in vivo. It is filed as toxicity, organism-based.
Series [8] relates to Rattus norvegicus. Nature of the series: Hepatotoxicity in po dosed rat assessed as effect on total serum protein level (reference value: 1.72+/- 0.02 g/dl). As to conditions: in vivo. In kind it is toxicity, organism-based.
The subject of series [9] is Rattus norvegicus. Nature of the series: Hepatotoxicity in po dosed rat assessed as effect on total albumin level (reference value: 1.63 +/- 0.02 g/dl). As to conditions: in vivo. It is filed as toxicity, organism-based.
For series [10], the system named is Liver. Put plainly: Hepatotoxicity in po dosed rat liver assessed as effect on hepatocyte morphological changes by histopathological analysis. It is filed as toxicity, organism-based. As to conditions: hepatocytes.
In series [11] the test system is Rattus norvegicus. Put plainly: Antiinflammatory activity in rat assessed as inhibition of carrageenan-induced paw edema at 70 mg/kg, po after 4 hrs. It is filed as functional.
Series [12] has as its system Rattus norvegicus. Nature of the series: Gastrointestinal toxicity in rat assessed as ulcerogenic index at 210 mg/kg, po. It is filed as organism-based. Further details: dose 210 mg/kg, route oral. As to conditions: in vivo.
The test system of series [13] is Liver. Nature of the series: Gastrointestinal toxicity in rat liver assessed as ulcerogenic activity-related malonaldehyde level per 100 mg of tissue at 210 mg/kg, po (RVb = 3.26 nmol). In kind it is organism-based. The arrangement: dose 210 mg/kg, route oral. As to conditions: in vivo.

In general, inhibition in vivo refers to how much of the control response was suppressed. `c1ccc(-c2nn3c(-c4ccncc4)nnc3s2)cc1`: the inhibition in vivo in [1] was found to be 66.4%. The “inhibition (INH)” value in series [2] is listed as 56.06%. For the same molecule, in series [3], the UI is 0.666. The Activity in [4] is reported as 5.78 nmol.
Regarding `Clc1ccccc1-c1nn2c(-c3ccncc3)nnc2s1`, in series [1], the inhibition in vivo turned out to be 45.4%. In series [2], the “inhibition (INH)” value stood at 37.27%. In series [3], the UI came out at 1.417. Besides, the Activity in series [4] is reported as 8.8 nmol.
The matching figures for `Clc1ccc(-c2nn3c(-c4ccncc4)nnc3s2)c(Cl)c1`: 69.3%, 61.81%, 0.75 and 6.71 nmol.
Take `Cc1ccccc1-c1nn2c(-c3ccncc3)nnc2s1`: the inhibition in vivo in series [1] was 79.8%. Besides, the “inhibition (INH)” value in series [2] worked out at 62.54%. For the same molecule, in series [3], the UI worked out at 0.471. The Activity in series [4] is on record as 4.16 nmol.
For `CC(=O)Oc1ccccc1-c1nn2c(-c3ccncc3)nnc2s1`, the inhibition in vivo in [1] is 39.8%. Also, the “inhibition (INH)” value in series [2] worked out at 25%. Also, the UI in series [3] came to 2.25. Besides, the Activity in series [4] is recorded as 8.82 nmol.
The like results for `c1ccc(Oc2nn3c(-c4ccncc4)nnc3s2)cc1` were, in that order, 63.5%, 52.27%, 1.5 and 7.32 nmol.
`O=[N+]([O-])c1ccc(-c2nn3c(-c4ccncc4)nnc3s2)cc1`: in [1], the inhibition in vivo came out at 86.3%. The “inhibition (INH)” value in [2] stood at 74.32%. The UI in series [3] came out at 0.324. Further, the Activity in series [5] was 138.32 U/ml; in series [6] it was 29.34 U/ml; in series [7], 12.76 U/ml; in series [8], 1.78 g/dL; in [9], 1.77 g/dL; in series [10], “Non-toxic”. Further, the Activity in series [4] stood at 3.47 nmol.
As to `Clc1ccccc1-c1nnc(-c2ccncc2)o1`, in series [1], the inhibition in vivo is 37.7%. In series [2], the “inhibition (INH)” value was determined as 29.54%. Besides, the UI in [3] worked out at 2. Moreover, the Activity in series [4] is recorded as 8.11 nmol.
For the molecule `Clc1ccc(-c2nnc(-c3ccncc3)o2)c(Cl)c1`, in series [1], the inhibition in vivo worked out at 84%. The “inhibition (INH)” value in series [2] came out at 70.37%. For the same molecule, the UI in series [3] is reported as 0.386. Moreover, the Activity in series [5] is 136.24 U/ml; in [6], 28.67 U/ml; in series [7], 13.79 U/ml; in [8], 1.76 g/dL; in series [9] it was 1.72 g/dL; in series [10], “Non-toxic”. Also, the Activity in series [4] amounted to 3.29 nmol.
As for `Cc1ccccc1-c1nnc(-c2ccncc2)o1`, in series [1], the inhibition in vivo was 43.4%. Further, the “inhibition (INH)” value in series [2] was determined as 31.81%. Besides, the UI in [3] came out at 2.266. In addition, the Activity in series [4] is recorded as 7.33 nmol.
The matching figures for `CC(=O)Oc1ccccc1-c1nnc(-c2ccncc2)o1`: 63.4%, 57.57%, 0.831 and 5.19 nmol.
The matching figures for `c1ccc(Oc2nnc(-c3ccncc3)o2)cc1`: 71.2%, 62.14%, 0.731 and 3.33 nmol.
`O=[N+]([O-])c1ccc(-c2nnc(-c3ccncc3)o2)cc1`: the inhibition in vivo in series [1] was determined as 54%. The “inhibition (INH)” value in [2] is recorded as 44.05%. In addition, the UI in series [3] came to 1.762. Also, the Activity in series [4] worked out at 6.85 nmol.
Take `c1ccc(-c2nnc(-c3ccncc3)o2)cc1`: the inhibition in vivo in series [1] is 82.6%. Moreover, in series [2], the “inhibition (INH)” value was 68.21%. Further, the UI in [3] is 1.667.
With `Sc1nnc(-c2ccncc2)o1`, in series [1], the inhibition in vivo came to 62.9%. Besides, in [2], the “inhibition (INH)” value turned out to be 54.28%. The UI in [3] turned out to be 1.327. Besides, the Activity in series [4] stood at 5.78 nmol.
With `CC(C)Cc1ccc(C(C)C(=O)O)cc1` (stereo not drawn) [IBUPROFEN], in [11], the inhibition in vivo at 70 mg/kg came to 82.7%. For the same molecule, the “inhibition (INH)” value in [2] is given as 73.52%. Also, the UI in series [12] is 2.315. In addition, the Activity in series [13] was determined as 7.51 nmol; in [5], 140.14 U/ml; in series [6], 34.26 U/ml; in series [7], 11.67 U/ml; in series [8], 1.74 g/dL; in [9], 1.71 g/dL.
Regarding `NNC(=O)c1ccncc1` [ISONIAZID], in series [1], the inhibition in vivo is 51.6%. The “inhibition (INH)” value in [2] turned out to be 45.9%. Moreover, in [3], the UI came to 3.75. For the same molecule, the Activity amounted to 151.25 U/ml in [5]; 40.21 U/ml in series [6]; 8.31 U/ml in series [7]; 1.55 g/dL in [8]; 1.48 g/dL in series [9].
